From patent EP3173421A1, “PEPTIDIC COMPOUNDS USEFUL AS ANTIBACTERIAL AGENTS” (Universitat de Barcelona, priority 2015, dated 2017)
Converted amounts (≈) assume the structure as drawn. Like-named read-outs stand apart in the source and are kept apart here. Marks after values point to notes of the source that are not given here. Where a SMILES comes first, the peptide text is derived from it. Bridges are numbered along the chain shown (N, C = ends). Where no end group is shown, it is not given here. [ ]: non-standard residue; d: D form. The star is where a group is joined. ξ: configuration not given here. dAoc(2) = CCCCCC[C@@H](N)C(=O)O; ξLac(3-iPr) = CC(C)CC(O)C(=O)O; Decanoyl = CCCCCCCCCC(=O)*; Nonanoyl = CCCCCCCCC(=O)*; Heptanoyl = CCCCCCC(=O)*; Nle = CCCC[C@H](N)C(=O)O; Octanoyl = CCCCCCCC(=O)*; Dab = NCC[C@H](N)C(=O)O; Hexanoyl = CCCCCC(=O)*

Legend:
[1] = test system: Escherichia coli ATCC 8739; type: cell-based
Excerpt: (§1) Bacterial strains used for the antibacterial activity tests were obtained from the American Type Culture Collection (ATCC, Rockville, MD, USA): • Non resistant Gram-negative bacterias: • Escherichia coli ATCC 8739 • Pseudomonas aeruginosa ATCC 9027 • Non resistant Gram-positive bacteria: • Staphylococcus aureus ATTC6538

[2] = test system: Pseudomonas aeruginosa ATCC 9027; type: cell-based
Excerpt: as §1

[3] = test system: Staphylococcus aureus ATTC6538; type: cell-based
Excerpt: as §1

Escherichia coli VAL 5 = type: cell-based
Excerpt: (§2) E. coli strains: NDM-1 (multidrug resistant strain) and VAL10, VAL5 and MAC21 strains show intermediante resistance to quinolones

Escherichia coli NDM-1 = type: cell-based
Excerpt: as §2

Escherichia coli MAC21a = type: cell-based
Excerpt: as §2

Escherichia coli VAL 10 = type: cell-based
Excerpt: as §2

[4] = test system: Pseudomonas aeruginosa 12R; type: cell-based; settings: P. aeruginosa 12R
Description: (§7) For resistant and multi-drug resistant bacteria Gram negative bacteria, the test was essentially the same with slight changes in the amounts used: samples of a final volume of 100µL were prepared as follows: aliquots (50 µL) of a suspension containing bacteria at a concentration of 1.5x10^6 colony-forming units/mL in culture medium (MH, Muller Hinton Broth, Difco, USA), adjusted at pH 7.4, were added to 100µL of solution containing the peptide prepared from a stock solution of 1024 mg/L peptide in water in serial 2-fold dilutions in MH broth adjusted to pH 7.4
(§8) Samples of resistant and multi-drug resistant bacteria were from clinical origin and not standardized: • Resistant Gram-negative bacterias used: • Escherichia coli VAL 5 • Escherichia coli VAL 10 • Escherichia coli MAC21a • Escherichia coli NDM-1 • Pseudomonas aeruginosa 36a • Pseudomonas aeruginosa 38a • Pseudomonas aeruginosa 21 R • Pseudomonas aeruginosa 21 S • Pseudomonas aeruginosa 12R • Pseudomonas aeruginosa 12S • Colistin-resistant A. baumannii CR49 • Colistin-resistant A. baumannii Ab99 […]

[5] = test system: Pseudomonas aeruginosa 36a; type: cell-based
Description: as §7

[6] = test system: Pseudomonas aeruginosa 12S; type: cell-based; settings: P. aeruginosa 12S
Description: as §7, §8

[7] = test system: Pseudomonas aeruginosa 38a; type: cell-based
Description: as §7

[8] = test system: Pseudomonas aeruginosa 21 S; settings: P. aeruginosa 21S
Description: (§3) The antibacterial activity of the lipopeptides was measured in sterile 96-well plates (Corning Costar 3598 microtiter plates). Samples of a final volume of 200µL were prepared as follows: aliquots (100 µL) of a suspension containing bacteria at a concentration of 10^5 colony-forming units/mL in culture medium (MH, Muller Hinton Broth, Difco, USA), adjusted at pH 7.4, were added to 100µL of solution containing the peptide prepared from a stock solution of 1 mg/mL peptide in water in serial 2-fold dilutions in MH broth adjusted to pH 7.4 (Jorgensen and Turnide, 2003). Inhibition of bacterial growth was determined by measuring the absorbance at 492 nm with a Absorbance Microplate reader ELx 800 (Bio-tek Instruments) after an incubation of 18-20 h at 37°C. Antibacterial activities are expressed as the MIC, the concentration at which no growth is observed after 18-20 h of incubation. Microorganisms were cultured on Tryptycase Soy Broth (Pronadisa, Barcelona) and incubated at 37°C until growth. Then a loopfull was streaked on Trypticase Soy Agar (Pronadisa, Barcelona) and incubated at 37°C until colony formation occurs. Microorganisms were preserved on cryobilles (EAS laboratoire, France) at -20°C.
(§4) For resistant and multi-drug resistant bacteria Gram negative bacteria, the test was essentially the same with slight changes in the amounts used: samples of a final volume of 100µL were prepared as follows: aliquots (50 µL) of a suspension containing bacteria at a concentration of 1.5x10^6 colony-forming units/mL in culture medium (MH, Muller Hinton Broth, Difco, USA), adjusted at pH 7.4, were added to […] of solution containing the peptide prepared from a stock solution of 1024 mg/L peptide in water in serial 2-fold dilutions in MH broth adjusted to pH 7.4
(§5) Samples of resistant and multi-drug resistant bacteria were from clinical origin and not standardized: • Resistant Gram-negative bacterias used: • Escherichia coli VAL 5 • Escherichia coli VAL 10 • Escherichia coli MAC21a • Escherichia coli NDM-1 • Pseudomonas aeruginosa 36a • Pseudomonas aeruginosa 38a • Pseudomonas aeruginosa 21 R • Pseudomonas aeruginosa 21 S • Pseudomonas aeruginosa 12R • Pseudomonas aeruginosa 12S • Colistin-resistant A. baumannii CR49 • Colistin-resistant A. baumannii Ab99
(§6) P. aeruginosa strains are highly-resistant: For instance, 38a and 36a are resistant to Ceftazidime, Ciprofloxacin, Imipenem, Piperacillin-tazobactam; 21S is resistant to Ceftazidime, Ciprofloxacin, Imipenem, Piperacillin-tazobactam and tobramycin; 21 R is resistant to Ciprofloxacin, tobramycin and colistin; 12S is resistant to cefotoxin, piperacillin/tazobactam, aztreonam, gentamicin and amikacin; and 12R is resistant to ceftazidime, cefotoxin,cefepime, piperacillin/tazobactam, aztreonam,imipenem, gentamicin, amikacin and colistin.

[9] = test system: Pseudomonas aeruginosa 21 R; settings: P. aeruginosa 21R
Description: as §3, §4, §5, §6

[10] = test system: Colistin-resistant A. baumannii CR49; type: cell-based
Description: as §7

[11] = test system: Colistin-resistant A. baumannii Ab99; type: cell-based
Description: as §7

[12] = test system: Staphylococcus aureus ATTC6538; settings: S. aureus ATTC6538; comparative examples, extracted from Rabanal et al. 2015; cited from earlier work
[13] = test system: Pseudomonas aeruginosa ATCC 9027; settings: P. aeruginosa ATTC9027 (non-resistant); comparative examples, extracted from Rabanal et al. 2015; cited from earlier work
[14] = test system: Escherichia coli ATCC 8739; settings: E coli ATCC8739 (non-resistant); comparative examples, extracted from Rabanal et al. 2015; cited from earlier work

| Molecule | MIC [1] | MIC ([2]; ATCC 9027) | MIC [3] | MIC (Escherichia coli VAL 5) | MIC (Escherichia coli NDM-1) | MIC (Escherichia coli MAC21a) | MIC (Escherichia coli VAL 10) | MIC [4] | MIC ([5]; 36a) | MIC [6] | MIC ([7]; 38a) | MIC [8] | MIC [9] | MIC [10] | MIC [11] | other results |
| --- | --- | --- | --- | --- | --- | --- | --- | --- | --- | --- | --- | --- | --- | --- | --- | --- |
| CCCCCCC(=O)N[C@@H](CCN)C(=O)N[C@H](C(=O)N[C@@H](CCN)C(=O)N[C@H]1CSSC[C@H](C(N)=O)NC(=O)[C@H](CCN)NC(=O)[C@H](CCN)NC(=O)[C@H](CCCC)NC(=O)[C@@H](CCCCCC)NC(=O)[C@H](CCN)NC1=O)[C@@H](C)O [Example 1, heptanoyl-Dab-Thr-Dab-cyclo(S-S)[Cys-Dab-DAoc-Nle-Dab-Dab-DCys]] (Heptanoyl-[Dab]T[Dab]C[Dab][dAoc(2)][Nle][Dab][Dab][dC]-NH2; disulfide 4-10) | 0.5 to 1 µg/mL | 0.5 µg/mL (≈ 0.42 µM) | 16 µg/mL (≈ 13.5 µM) | 1 µg/mL (≈ 0.841 µM) | ≤ 0.5 µg/mL | <0.5 µg/mL | 1 µg/mL (≈ 0.841 µM) | 1 µg/mL (≈ 0.841 µM) | 0.06 µg/mL (≈ 0.0504 µM) | 0.5 µg/mL (≈ 0.42 µM) | 0.03 µg/mL (≈ 0.0252 µM) | 0.03 µg/mL (≈ 0.0252 µM) | 0.25 µg/mL (≈ 0.21 µM) |  |  |  |
| CCCCCCC(=O)N[C@@H](CCN)C(=O)N[C@H](C(=O)N[C@@H](CCN)C(=O)N[C@H]1CSSC[C@H](C(N)=O)NC(=O)[C@H](CCN)NC(=O)[C@H](CCN)NC(=O)C(CC(C)C)OC(=O)[C@@H](CCCCCC)NC(=O)[C@H](CCN)NC1=O)[C@@H](C)O (stereo partly drawn) [Example 2, heptanoyl-Dab-Thr-Dab-cyclo(S-S)[Cys-Dab-DAoc-OLe-Dab-Dab-DCyc]] (Heptanoyl-[Dab]T[Dab]C[Dab][dAoc(2)][ξLac(3-iPr)][Dab][Dab][dC]-NH2; disulfide 4-10) | 4 µg/mL (≈ 3.36 µM) | 1 to 2 µg/mL | 64 µg/mL (≈ 53.8 µM) | 1 µg/mL (≈ 0.84 µM) | 1 µg/mL (≈ 0.84 µM) | 8 µg/mL (≈ 6.72 µM) | 32 µg/mL (≈ 26.9 µM) | 0.25 µg/mL (≈ 0.21 µM) | 1 µg/mL (≈ 0.84 µM) | 0.25 µg/mL (≈ 0.21 µM) | 0.125 µg/mL (≈ 0.105 µM) | 0.25 µg/mL (≈ 0.21 µM) | 2 µg/mL (≈ 1.68 µM) | 16 µg/mL (≈ 13.4 µM) | 16 µg/mL (≈ 13.4 µM) |  |
| CCCCCC[C@@H](N)C(=O)N[C@H](C(=O)N[C@@H](CCN)C(=O)N[C@H]1CSSC[C@H](C(N)=O)NC(=O)[C@H](CCN)NC(=O)[C@H](CCN)NC(=O)C(CC(C)C)OC(=O)[C@@H](CCCCCC)NC(=O)[C@H](CCN)NC1=O)[C@@H](C)O (stereo partly drawn) [Example 3, DAoc-Thr-Dab-cyclo(S-S)[Cys-Dab-DAoc-OLe-Dab-Dab-DCys]] (H-[dAoc(2)]T[Dab]C[Dab][dAoc(2)][ξLac(3-iPr)][Dab][Dab][dC]-NH2; disulfide 4-10) | 2 µg/mL (≈ 1.79 µM) | 0.25 µg/mL (≈ 0.223 µM) |  | 2 µg/mL (≈ 1.79 µM) | 2 µg/mL (≈ 1.79 µM) | 8 µg/mL (≈ 7.15 µM) | 16 µg/mL (≈ 14.3 µM) | 0.25 µg/mL (≈ 0.223 µM) | 0.5 µg/mL (≈ 0.447 µM) | 0.5 µg/mL (≈ 0.447 µM) | 4 µg/mL (≈ 3.57 µM) | 0.25 µg/mL (≈ 0.223 µM) | 0.125 µg/mL (≈ 0.112 µM) | 8 µg/mL (≈ 7.15 µM) | 8 µg/mL (≈ 7.15 µM) |  |
| CCCCCCCC(=O)N[C@@H](CCN)C(=O)N[C@H](C(=O)N[C@@H](CCN)C(=O)N[C@H]1CSSC[C@H](C(N)=O)NC(=O)[C@H](CCN)NC(=O)[C@H](CCN)NC(=O)C(CC(C)C)OC(=O)[C@@H](CCCCCC)NC(=O)[C@H](CCN)NC1=O)[C@@H](C)O (stereo partly drawn) [Example 4, octanoyl-Dab-Thr-Dab-cyclo(S-S)[Cys-Dab-DAoc-OLe-Dab-Dab-DCys]] (Octanoyl-[Dab]T[Dab]C[Dab][dAoc(2)][ξLac(3-iPr)][Dab][Dab][dC]-NH2; disulfide 4-10) | 1 µg/mL (≈ 0.83 µM) | 0.25 µg/mL (≈ 0.208 µM) |  | 1 µg/mL (≈ 0.83 µM) | 1 µg/mL (≈ 0.83 µM) | 8 µg/mL (≈ 6.64 µM) | 8 µg/mL (≈ 6.64 µM) | 0.25 µg/mL (≈ 0.208 µM) |  | 0.125 µg/mL (≈ 0.104 µM) |  | 0.25 µg/mL (≈ 0.208 µM) | 2 µg/mL (≈ 1.66 µM) | 16 µg/mL (≈ 13.3 µM) | 8 µg/mL (≈ 6.64 µM) | MIC ([5]; P. aeruginosa 36a): 0.125 µg/mL (≈ 0.104 µM); MIC ([7]; P. aeruginosa 38a): 0.125 µg/mL (≈ 0.104 µM) |
| CCCCCC[C@H]1NC(=O)[C@H](CCN)NC(=O)[C@@H](NC(=O)[C@H](CCN)NC(=O)[C@@H](NC(=O)[C@H](CCN)NC(=O)CCCCC)[C@@H](C)O)CSSC[C@H](C(N)=O)NC(=O)[C@H](CCN)NC(=O)[C@H](CCN)NC(=O)C(CC(C)C)OC1=O (stereo partly drawn) [Example 5, hexanoyl-Dab-Thr-Dab-cyclo(S-S)[Cys-Dab-DAoc-OLe-Dab-Dab-DCys]] (Hexanoyl-[Dab]T[Dab]C[Dab][dAoc(2)][ξLac(3-iPr)][Dab][Dab][dC]-NH2; disulfide 4-10) | 2 to 4 µg/mL | <0.25 µg/mL | 32 µg/mL (≈ 27.2 µM) |  |  |  |  |  |  |  |  |  |  |  |  |  |
| CCCCCCC(=O)N[C@@H](Cc1c[nH]cn1)C(=O)N[C@H](C(=O)N[C@@H](CCN)C(=O)N[C@H]1CSSC[C@H](C(N)=O)NC(=O)[C@H](Cc2c[nH]cn2)NC(=O)[C@H](CCN)NC(=O)[C@H](CCCC)NC(=O)[C@@H](CCCCCC)NC(=O)[C@H](CCN)NC1=O)[C@@H](C)O [Example 6] (Heptanoyl-HT[Dab]C[Dab][dAoc(2)][Nle][Dab]H[dC]-NH2; disulfide 4-10) | 4 µg/mL (≈ 3.17 µM) | 1 µg/mL (≈ 0.791 µM) | 16 µg/mL (≈ 12.7 µM) | 8 µg/mL (≈ 6.33 µM) | 8 µg/mL (≈ 6.33 µM) | 8 µg/mL (≈ 6.33 µM) | 16 µg/mL (≈ 12.7 µM) |  | 1 µg/mL (≈ 0.791 µM) |  | 32 µg/mL (≈ 25.3 µM) |  |  | 4 µg/mL (≈ 3.17 µM) | 32 µg/mL (≈ 25.3 µM) |  |
| CCCCCC[C@H]1NC(=O)[C@H](CCN)NC(=O)[C@@H](NC(=O)[C@H](CCN)NC(=O)[C@@H](NC(=O)[C@H](CCN)NC(=O)CCCCC)[C@@H](C)O)CSSC[C@H](C(N)=O)NC(=O)[C@H](CCN)NC(=O)[C@H](CCN)NC(=O)[C@H](CCCC)NC1=O [Example 7, hexanoyl-Dab-Thr-Dab-cyclo(S-S)[Cys-Dab-DAoc-Nle-Dab-Dab-DCys]] (Hexanoyl-[Dab]T[Dab]C[Dab][dAoc(2)][Nle][Dab][Dab][dC]-NH2; disulfide 4-10) | 8 µg/mL (≈ 6.81 µM) |  | >32 µg/mL |  |  |  |  |  |  |  |  |  |  |  |  | MIC ([2]; P. aeruginosa ATTC9027 (non-resistant)): 1-2* µg/ml |
| Decanoyl-[Dab]T[Dab]C[Dab][dF]L[Dab][Dab][dC] (cysteine pairing not given here) [Comparative Example 8b] |  |  |  |  |  |  |  |  |  |  |  |  |  |  |  | MIC [12]: 8 µg/mL; MIC [13]: 4 µg/mL; MIC [14]: 2 µg/mL |
| Nonanoyl-[Dab]T[Dab]C[Dab][dF]L[Dab][Dab]C (cysteine pairing not given here) [Comparative Example 8a] |  |  |  |  |  |  |  |  |  |  |  |  |  |  |  | MIC [12]: >32 µg/mL; MIC [13]: 8 µg/mL; MIC [14]: 4 µg/mL |
